Results from patent US20020054880A1, “Anti-inflammatory, tolerogenic and immunoinhibiting properties of carbohydrate binding-peptides” (priority 1992, published 2002).

Experiments:
[1] = biological target: SPYGRC-biotin binding to fetuin (Bordetella pertussis, UniProt P04978); assay: Inhibition of SPYGRC-biotin binding to fetuin by simple saccharides; settings: saccharide 8 mM in PBS, 0.5 μg SPYGRC-biotin, fetuin 3 μg/ml, + enhancement
Description: Binding inhibition assays were done using sialic acid, sialyllactose, lactose, or N-acetyl-glucosamine at a concentration of 8 mM in PBS. […] The pH of free sialic acid was carefully monitored and adjusted to physiological pH values with dilute sodium hydroxide.

[2] = biological target: T1, ACS2P1-biotin binding to fetuin (Bordetella pertussis, UniProt P04978); settings: saccharide 8 mM in PBS; 0.1 μg ACS2P1-biotin; fetuin 3 μg/ml; + enhancement, − inhibition
T1 construct: 2; ACS2P1-b; 9-23; made in house; host or cells: chemical synthesis

[3] = biological target: T2, ACS2P1-biotin binding to fetuin (Bordetella pertussis, UniProt P04978, G45S); settings: saccharide 8 mM; n=3
T2 construct: 2; ACS2P1-b; 9-23; made in house; host or cells: chemical synthesis

[4] = biological target: T3, ACS2P1-biotin binding to fetuin (Bos taurus, UniProt P12763); assay: biochemical; settings: for Percent Change in Binding Activity Fetuin: peptide μM: ACS2P1 4.1, S2P2 42.5, SPYGRC 5520, S2P3 22.4, S2P4 6.0, S2P6 319, S3P1 1142, S3P2 934, S3P3 16.1, S3P4 6.4, S3P5 22.5, ACS2P1-biotin 0.1 μg, − inhibition, + enhancement
T3 construct: purchased Sigma Chemical Company
T3 sequence (P12763 19-359): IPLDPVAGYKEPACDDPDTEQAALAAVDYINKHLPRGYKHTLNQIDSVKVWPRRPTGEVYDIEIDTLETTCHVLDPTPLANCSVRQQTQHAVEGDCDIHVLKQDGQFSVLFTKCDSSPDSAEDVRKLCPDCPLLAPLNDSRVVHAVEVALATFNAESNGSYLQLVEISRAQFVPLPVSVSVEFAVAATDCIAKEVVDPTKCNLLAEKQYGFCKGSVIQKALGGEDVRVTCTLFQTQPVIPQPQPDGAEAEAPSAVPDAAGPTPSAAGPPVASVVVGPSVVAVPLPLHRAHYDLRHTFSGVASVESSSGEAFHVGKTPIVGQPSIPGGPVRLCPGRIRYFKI

[5] = biological target: T4, PT-biotin binding to asialofetuin (Bos taurus, UniProt P12763); assay: PT-biotin binding to asialofetuin, binding inhibition assay; parameters: species or system Bordetella pertussis; settings: peptide mg/mL: S2PL 1.2, ACS2P1 1.0, S2P2 1.1, S2P3 0.51, S2P4 0.98, S2P6 0.85, S3P1 3.2, S3P2 3.1, S3P3 4.5, S3P4 3.3, S3P5 0.48, SPYGRC 4.4; + enhancement, − inhibition
T4 construct: made in house
T4 sequence (P12763 19-359): T3 sequence (P12763 19-359)
Description: (§1) Peptides ranging in concentration from 0.5 to 4.5 mg/ml in PBS (40 μl) were added to each well and PT-biotin (10 μl containing 10 ng in PBS) was then added to the microtiter wells. […] Horseradish peroxidase-conjugated avidin (100 μl, 1/3000 dilution in PBST to a concentration of 0.3 μg/ml) was then added to the wells, and the plates were incubated at ambient temperature for 1 hour. […] Color development was recorded at 405 nm using a Titertek Multiskan MC plate reader. […] Binding assays for each peptide were done in duplicate. Binding inhibition experiments utilizing SNA-, WGA-, and MAL-biotin were performed as described above using 10 ng of each biotinylated lectin in PBS.
(§2) Binding assays for each inhibitor concentration were done at least in duplicate, and the average value varied less than 15%.

[6] = tested on: pertussis toxin binding to Chinese Hamster ovary (CHO) cell; assay: CHO cell neutralization of pertussis toxin (cell clumping); format: cell-based; settings: PT 2.4 ng/ml, peptide and PT 1 hour, triplicate
Description: Confluent monolayers of CHO cells were lifted from plastic tissue culture flasks with 0.25% trypsin and suspended at a concentration of 5×10^4 cells/ml in Ham's F12 media containing 10% fetal bovine serum (FBS). 100 μl of the cell suspension was added to 96 well tissue culture plates and were allowed to establish contact with the plastic for 24 to 48 hours. The expended media was then removed and filtered-sterilized peptide 5-fold dilutions ranging in concentration from 300 to 30 femptogram per ml (80 μl) in Ham' F12 media containing FBS were added to the CHO cells. […] The incubation mixtures were gently mixed and incubated at 37° C. for 1 hour in a CO2 incubator. The incubation mixtures were then removed and replaced with fresh media. The tissue culture plates were then incubated for 24 hours at 37° C., fixed with 100% methanol, and stained with Geimsa stain. Control experiments were done in the absence of peptide alone or in the absence of PT. All determinations were done in triplicate. […] The results reported in Table VIII show the maximum peptide concentration required to cause a 50% reduction in CHO cell clumping.

[7] = biological target: T5, PT-biotin binding to fetuin (Bos taurus, UniProt P12763); assay: PT-biotin binding to fetuin, binding inhibition assay; parameters: species or system Bordetella pertussis; settings: for Percent Changes in Binding Activity PT/fetuin: peptide mg/mL: S2PL 1.2, ACS2P1 1.0, S2(14-2.3) 1.0, S2P2 1.1, S2P3 0.51, S2P4 0.98, S2P6 0.85, S3P1 3.2, S3P2 3.1, S3P3 4.5, S3P4 3.3, S3P5 0.48, S3P9a 1.7, SPYGRC 4.4, S2(WGA) 1.0, WGA (62-73) 1.0, + enhancement, − inhibition
T5 construct: purchased Sigma Chemical Company (fetuin); Connaught Center for Biotechnology Research (PT)
T5 sequence (P12763 19-359): T3 sequence (P12763 19-359)
Description: as §1, §2

[8] = biological target: T6, SNA-biotin binding to fetuin (Bos taurus, UniProt P12763); assay: biochemical; settings: peptide mg/mL: S2PL 1.2, ACS2P1 1.0, S2(14-2.3) 1.0, S2P2 1.1, S2P3 0.51, S2P4 0.98, S2P6 0.85, S3P1 3.2, S3P2 3.1, S3P3 4.5, S3P4 3.3, S3P5 0.48, S3P9a 1.7, SPYGRC 4.4, S2(WGA) 1.0, WGA (62-73) 1.0; + enhancement, − inhibition
T6 sequence (P12763 19-359): T3 sequence (P12763 19-359)
Description: (§3) The solution was removed by aspiration and replaced with 100 μl of 1% BSA in PBS containing 0.05% Tween 20 (PBST). After incubation for 2-4 hours at room temperature, the microtiter wells were washed four times with 300 μl of PBST. Peptides ranging in concentration from 0.5 to 4.5 mg/ml in PBS (40 μl) were added to each well and PT-biotin (10 μl containing 10 ng in PBS) was then added to the microtiter wells. After incubating for 1 hour, the binding reaction was stopped by aspirating the solutions and the plate was washed with PBST (300 μl). Horseradish peroxidase-conjugated avidin (100 μl, 1/3000 dilution in PBST to a concentration of 0.3 μg/ml) was then added to the wells, and the plates were incubated at ambient temperature for 1 hour. After washing the wells as described above, the substrate solution [1 mM ABTS in 5 mM citrate buffer, pH 4.2, containing 0.1% hydrogen peroxide, v/v) was added and the plates were incubated for 30 minutes. Color development was recorded at 405 nm using a Titertek Multiskan MC plate reader. Maximum binding was determined in the absence of peptide, and background binding was measured in wells coated with BSA only. Binding assays for each peptide were done in duplicate. Binding inhibition experiments utilizing SNA-, WGA-, and MAL-biotin were performed as described above using 10 ng of each biotinylated lectin in PBS.

[9] = biological target: T7, WGA-biotin binding to fetuin (Bos taurus, UniProt P12763); assay: biochemical; settings: peptide mg/mL: S2PL 1.2, ACS2P1 1.0, S2(14-2.3) 1.0, S2P2 1.1, S2P3 0.51, S2P4 0.98, S2P6 0.85, S3P1 3.2, S3P2 3.1, S3P3 4.5, S3P4 3.3, S3P5 0.48, SPYGRC 4.4, S2(WGA) 1.0, WGA (62-73) 1.0; + enhancement, − inhibition
T7 sequence (P12763 19-359): T3 sequence (P12763 19-359)
Description: as §3

[10] = biological target: T8, ACS2P1-biotin binding to asialofetuin (Bos taurus, UniProt P12763); assay: Screening of S2 and S3 peptides for inhibition of ACS2P1-biotin binding to asialofetuin; settings: for Percent Change in Binding Activity Asialofetuin: peptide μM: ACS2P1 4.1, S2P2 42.5, SPYGRC 5520, S2P3 22.4, S2P4 6.0, S2P6 319, S3P1 1142, S3P2 934, S3P3 16.1, S3P4 6.4, S3P5 22.5, ACS2P1-biotin 0.1 μg, − inhibition, + enhancement
T8 construct: made in house
T8 sequence (P12763 19-359): T3 sequence (P12763 19-359)

[11] = biological target: T9, MAL-biotin binding to fetuin (Bos taurus, UniProt P12763); assay: MAL-biotin binding to fetuin, binding inhibition assay; parameters: species or system Maackia amurensis; settings: peptide mg/mL: S2PL 1.2, ACS2P1 1.0, S2(14-2.3) 1.0, S2P2 1.1, S2P3 0.51, S2P4 0.98, S2P6 0.85, S3P1 3.2, S3P2 3.1, S3P3 4.5, S3P4 3.3, S3P5 0.48, S3P9a 1.7, SPYGRC 4.4, S2(WGA) 1.0, WGA (62-73) 1.0; + enhancement, − inhibition
T9 construct: purchased Sigma Chemical Company (fetuin); Boehringer Mannheim (MAL-biotin)
T9 sequence (P12763 19-359): T3 sequence (P12763 19-359)
Description: as §1, §2

OC[C@H]1O[C@@H](O[C@H]2[C@H](O)[C@@H](O)C(O)O[C@@H]2CO)[C@H](O)[C@@H](O)[C@H]1O (some centres unmarked) [Lactose]
Percent Changes in Binding Activity SPYGRC-biotin (n = 3) [1]: +20 ± 11% | Percent Changes in Binding Activity ACS2P1-biotin (n = 3) [2]: +74 ± 7% | inhibition of the binding of biotinylated peptide (ACS2P1-biotin) to fetuin [3]: failed to reduce the binding of ACS2P1-biotin

CC(=O)N[C@H]1C(O)O[C@H](CO)[C@@H](O)[C@@H]1O (some centres unmarked) [N-Acetylglucosamine]
Percent Changes in Binding Activity SPYGRC-biotin (n = 3) [1]: +6 ± 5% | Percent Changes in Binding Activity ACS2P1-biotin (n = 3) [2]: −10 ± 2% | inhibition of the binding of biotinylated peptide (ACS2P1-biotin) to fetuin [3]: 10±2%

CC[C@H](C)[C@H](NC(=O)CNC(=O)[C@@H]1CCCN1C(=O)[C@@H](NC(=O)[C@@H](N)CO)[C@@H](C)O)C(=O)N[C@H](C(=O)N[C@H](C(=O)N1CCC[C@H]1C(=O)N1CCC[C@H]1C(=O)N[C@@H](CCC(N)=O)C(=O)N[C@@H](CCC(=O)O)C(=O)N[C@@H](CCC(N)=O)C(=O)N[C@H](C(=O)N[C@H](C(=O)N[C@@H](CCC(N)=O)C(=O)N[C@@H](Cc1c[nH]cn1)C(=O)NCC(=O)N[C@@H](CO)C(=O)N1CCC[C@H]1C(=O)N[C@@H](Cc1ccc(O)cc1)C(=O)NCC(=O)N[C@@H](CCCNC(=N)N)C(=O)N[C@@H](CS)C(=O)O)[C@@H](C)O)[C@@H](C)CC)[C@@H](C)CC)C(C)C [Peptide S2P2]
IC50 [4]: 42.5 µM | decrease in affinity relative to ACS2P1 ([4]; from IC50 values): 10 fold | Percent Change in Binding Activity Fetuin [4]: −50% | Percent Changes in Binding Activity PT/asialo-fetuin [5]: +33(1) Percent | Maximal Inhibitory Concentration for Greater than 50% Inhibition [6]: NI (Not inhibitory at a peptide concentration of 300 ng/ml.) | effect on PT-biotin binding to fetuin, in words [7]: enhancement of binding of PT to fetuin | enhancement of PT-biotin binding to fetuin relative to control experiments in the absence of peptide ([7]; initial peptide screening): ~2 fold | Percent Changes in Binding Activity PT/fetuin [7]: +58 ± 4% | Percent Changes in Binding Activity SNA/fetuin [8]: −1 ± 1% | Percent Changes in Binding Activity WGA/fetuin [9]: −15 ± 2% | competition for the binding of ACS2P1-biotin to asialofetuin, in words [10]: unable to compete for the binding of ACS2P1-biotin to asialofetuin | Percent Change in Binding Activity Asialofetuin [10]: +6 ± 1% | Percent Changes in Binding Activity MAL/fetuin [11]: +14 ± 2%

CC(=O)N[C@H]1[C@H]([C@H](O)[C@H](O)CO)OC(O)(C(=O)O)C[C@@H]1O (some centres unmarked) [Sialic acid]
Percent Changes in Binding Activity SPYGRC-biotin (n = 3) [1]: +9 ± 8%

OC[C@H]1O[C@@](CO)(O[C@H]2O[C@H](CO)[C@@H](O)[C@H](O)[C@H]2O)[C@@H](O)[C@@H]1O [Sucrose]
Percent Changes in Binding Activity ACS2P1-biotin (n = 3) [2]: 0 ± 3%

PKALFTQQGGAYGRC [Peptide S3P1]
inhibition of ACS2P1-biotin binding to fetuin, in words [4]: inability | Percent Change in Binding Activity Fetuin [4]: +245 ± 28% | Percent Changes in Binding Activity PT/asialo-fetuin [5]: +45 ± 16% | Maximal Inhibitory Concentration for Greater than 50% Inhibition [6]: NI (Not inhibitory at a peptide concentration of 300 ng/ml.) | Percent Changes in Binding Activity PT/fetuin [7]: +54 ± 25% | Percent Changes in Binding Activity SNA/fetuin [8]: −2 ± 1% | Percent Changes in Binding Activity WGA/fetuin [9]: −9 ± 4% | Percent Change in Binding Activity Asialofetuin [10]: +4 ± 0% | Percent Changes in Binding Activity MAL/fetuin [11]: +4 ± 6%

Sialyllactose
Percent Changes in Binding Activity SPYGRC-biotin (n = 3) [1]: −24 ± 6% | Percent Changes in Binding Activity ACS2P1-biotin (n = 3) [2]: −46 ± 3%

VAPGIVIPPKALFTQQGGAYGRC [Peptide S3P2]
inhibition of ACS2P1-biotin binding to fetuin, in words [4]: inability | Percent Change in Binding Activity Fetuin [4]: +88 ± 72% | Percent Changes in Binding Activity PT/asialo-fetuin [5]: +82 ± 11% | Maximal Inhibitory Concentration for Greater than 50% Inhibition [6]: NI (Not inhibitory at a peptide concentration of 300 ng/ml.) | Percent Changes in Binding Activity PT/fetuin [7]: +77 ± 59% | Percent Changes in Binding Activity SNA/fetuin [8]: +3 ± 3% | Percent Changes in Binding Activity WGA/fetuin [9]: +9 ± 4% | Percent Change in Binding Activity Asialofetuin [10]: +12 ± 16% | Percent Changes in Binding Activity MAL/fetuin [11]: +12 ± 16%
